One assay has as its system A549. Briefly: In vitro cytological inhibitory activity (XTT). In kind it is cell-based. The conditions noted are these: Homo sapiens, 72 hrs. How it is done: A549: Human lung cancer cell line;
(§1) 1. Preparation of agents and compounds:
(§2) • 1.1 Preparation of phosphoric acid buffering solution (PBS): 8 g NaCl, 0.2 g KCl, 1.44 g Na2HPO4 and 0.24 g KH2PO4 were weighed and added to 800 mL ultrapure water. The mixture was adjusted to pH=7.4, and ultrapure water was added to the metered volume of IL. Then the autoclaving was conducted for 20 mins. • 1.2 Preparation of XTT detection working solution: 100 mg (2,3-Bis-(2-methoxy-4-nitro-5-sulfophenyl)-2H-tetrazolium-5-carboxanilide); 2,3-bis(2-methoxy-4-nitro-5-sulfophenyl)-5-[(phenylamino)carbonyl]-2H-tetrazolium hydroxide (XTT) powder was weighed, and dissolved under protection from light 300 mL of phenol red-free and serum-free RPMI1640 culture, which had been warmed up to 50° C. The resulting mixture was filtered, packaged and used immediately or in one week. The complete process was conducted under protection from light. • 1.3 Preparation of the test compound • Preparation of the stock solution of the test compound: The test compound powder was dissolved in DMSO in a concentration of 10 mM. • Preparation of the gradiently diluted solution of the test compound: 10 mM of the stock solution of the test compound was successively and gradiently diluted with DMSO by 4 folds for 10 concentrations. […]
On the technique in general: Tetrazolium dyes change colour on reduction, which living cells bring about.

A further assay addresses Dopamine D4.2 (Homo sapiens (Human), UniProt P21917, DEL265-296). The experiment in a line: Radioligand binding assay No. 219900. The conditions noted are these: test substance 10 μM, read-out: Inhibitory rate (%), Dopamine D4.2.
The next assay deals with Sodium Channel, Site2. Briefly: Radioligand binding assay No. 279510. The conditions noted are these: test substance 10 μM; rat.
Another assay deals with Glutamate, NMDA, Glycine (Rattus norvegicus (Rat), UniProt P35439). The experiment in a line: Radioligand binding assay No. 232910. Conditions: test substance 10 μM, read-out: Inhibitory rate (%), Glutamate, NMDA, Glycine.
For a further assay, the target named is Histamine H1 (Homo sapiens (Human), UniProt P35367). The experiment in a line: Radioligand binding assay No. 239610. The conditions noted are these: test substance 10 μM, read-out: Inhibitory rate (%), Histamine H1.
Histamine H1, sequence (P35367 whole entry): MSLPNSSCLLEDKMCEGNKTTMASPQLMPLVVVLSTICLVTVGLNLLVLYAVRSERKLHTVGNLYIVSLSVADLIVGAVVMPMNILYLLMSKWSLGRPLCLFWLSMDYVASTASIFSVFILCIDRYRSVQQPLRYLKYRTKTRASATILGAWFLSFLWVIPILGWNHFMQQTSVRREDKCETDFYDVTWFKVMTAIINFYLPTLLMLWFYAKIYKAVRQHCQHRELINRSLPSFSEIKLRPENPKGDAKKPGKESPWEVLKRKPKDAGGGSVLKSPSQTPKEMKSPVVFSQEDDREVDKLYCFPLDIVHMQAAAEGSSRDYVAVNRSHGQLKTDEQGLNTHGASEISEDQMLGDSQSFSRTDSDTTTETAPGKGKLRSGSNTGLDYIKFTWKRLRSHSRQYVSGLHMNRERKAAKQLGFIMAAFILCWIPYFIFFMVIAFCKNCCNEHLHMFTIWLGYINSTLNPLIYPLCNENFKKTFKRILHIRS
In another assay the target is Prostanoid EP4 (Homo sapiens (Human), UniProt P35408). The experiment in a line: Radioligand binding assay No. 268420. The conditions noted are these: test substance 10 μM, read-out: Inhibitory rate (%), Prostanoid EP4.
Prostanoid EP4, sequence (P35408 whole entry): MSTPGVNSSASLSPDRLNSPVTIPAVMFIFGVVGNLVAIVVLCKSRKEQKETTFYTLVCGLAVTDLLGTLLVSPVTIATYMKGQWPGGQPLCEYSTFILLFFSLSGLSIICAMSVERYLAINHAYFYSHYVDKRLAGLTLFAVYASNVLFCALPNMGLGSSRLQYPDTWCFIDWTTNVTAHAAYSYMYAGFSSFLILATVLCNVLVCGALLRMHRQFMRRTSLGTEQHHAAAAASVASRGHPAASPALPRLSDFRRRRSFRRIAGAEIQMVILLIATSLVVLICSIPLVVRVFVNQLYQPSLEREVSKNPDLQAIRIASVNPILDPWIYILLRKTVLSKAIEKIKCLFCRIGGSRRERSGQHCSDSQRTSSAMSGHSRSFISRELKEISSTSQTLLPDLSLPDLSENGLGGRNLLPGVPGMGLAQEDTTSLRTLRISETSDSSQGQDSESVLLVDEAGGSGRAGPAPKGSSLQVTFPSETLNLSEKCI
Another assay addresses Adenosine A3 (Homo sapiens (Human), UniProt P0DMS8). Briefly: Radioligand binding assay No. 200720. Conditions: test substance 10 μM, read-out: Inhibitory rate (%), Adenosine A3.
The test system of another assay is MCF-7. Briefly: In vitro cytological inhibitory activity (XTT). It is filed as cell-based. The conditions noted are these: Homo sapiens, MCF7, 72 hrs. As to the method: MCF-7: Human breast carcinoma cell line;
as §1, §2

Assay [1] has as its system GABAA, Flunitrazepam, Central. Briefly: Radioligand binding assay No. 226600. Conditions: test substance 10 μM; rat.

One may read the IC50 as the concentration that inhibits the measured activity by half. Low values mean greater potency, high ones weaker potency.

Adenosine A3, sequence (P0DMS8 whole entry): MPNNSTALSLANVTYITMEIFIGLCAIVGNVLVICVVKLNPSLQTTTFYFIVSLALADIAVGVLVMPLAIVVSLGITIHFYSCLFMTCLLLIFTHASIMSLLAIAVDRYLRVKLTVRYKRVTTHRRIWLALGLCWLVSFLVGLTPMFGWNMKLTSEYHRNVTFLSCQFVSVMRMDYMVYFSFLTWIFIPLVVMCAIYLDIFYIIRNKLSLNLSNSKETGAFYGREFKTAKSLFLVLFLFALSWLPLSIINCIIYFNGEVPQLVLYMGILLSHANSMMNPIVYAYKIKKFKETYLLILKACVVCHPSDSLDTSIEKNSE
Dopamine D4.2, sequence (P21917 other isoform, or with tags, fused parts or gaps del 265-296): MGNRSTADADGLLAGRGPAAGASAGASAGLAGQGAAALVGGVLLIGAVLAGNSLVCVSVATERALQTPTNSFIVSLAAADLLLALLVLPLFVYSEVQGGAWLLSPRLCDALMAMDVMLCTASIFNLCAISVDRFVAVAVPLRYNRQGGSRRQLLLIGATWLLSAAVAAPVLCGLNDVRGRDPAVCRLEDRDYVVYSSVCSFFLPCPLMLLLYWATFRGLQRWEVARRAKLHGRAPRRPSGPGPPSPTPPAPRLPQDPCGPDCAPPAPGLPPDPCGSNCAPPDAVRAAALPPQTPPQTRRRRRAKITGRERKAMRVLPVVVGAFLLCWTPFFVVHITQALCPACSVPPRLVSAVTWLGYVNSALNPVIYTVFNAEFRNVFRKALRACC

Compound `O=c1[nH]c(=O)n(-c2cccc(C(F)(F)F)c2)c2c1cnc1ccc(-c3cnc4[nH]ccc4c3)nc12` [Compound 30, 9-(1H-pyrrolo[2,3-b]pyridin-5-yl)-1-(3-(trifluoromethyl)phenyl)pyrimido[5,4-c][1,5]naphthyridine-2,4(1H,3H)-dione] displayed an IC50 with A549 of 107 nM.
As for `Nc1ccc(-c2ccc3ncc4c(=O)[nH]c(=O)n(-c5cccc(C(F)(F)F)c5)c4c3n2)cn1` [Compound 5, 9-(6-aminopyridin-3-yl)-1-(3-(trifluoromethyl)phenyl)pyrimido[5,4-c][1,5]naphthyridine-2,4(1H,3H)-dione], the inhibition at 10 µM is 12% on Dopamine D4.2; 29% on Glutamate, NMDA, Glycine; 10% on Histamine H1; 19% at Prostanoid EP4; 11% at Adenosine A3. The “Inhibitory rate (%), Sodium Channel, Site2” value in the assay with Sodium Channel, Site2 was 7%. The compound also gave an IC50 in the assay on MCF-7 of 28.2 nM. Further, the “Inhibitory rate (%), GABAA, Flunitrazepam, Central” value in assay [1] was determined as 34%.

Source of the values: patent publication US9365572B2, “PI3K and/or mTOR inhibitor” (XUANZHU PHARMA CO., LTD., priority 2012, dated 2016).
